From patent EP2646421B1, “7-NITRO-5-PHENYL-1-(PYRROLIDIN-1-YLMETHYL)-1H-BENZO[E][1,4]DIAZEPIN-2(3H)-ONE AND OTHER BENZODIAZEPINE DERIVATIVES” (Pignataro, Giuseppe, priority 2010, dated 2012) come the findings set out here.

One assay concerns the target T1, NCX2 (Rattus norvegicus, UniProt P48768).
T1 construct: expressed in transfected cells
Briefly: Patch-clamp electrophysiology (whole-cell NCX currents), BHK-NCX2 cells. The following applies: 10 nM, 10 minutes. The format is cell-based. As to the method:
To further investigate the effects of this compound on the Na^+/Ca^2+ exchanger activity, we performed electrophysiological experiments on BHK cells stably transfected with each of NCX isoforms (named BHK-NCX1, BHK-NCX2 and BHK-NCX3).
The activity of NCX was established by means of three different subclones of baby hamsted kidney (BHK) cells that were stably transfected with one of each NCX isoforms, named BHK-NCX1, BHK-NCX2 and BHK-NCX3. These cell lines were grown on plastic dishes in a mix of DMEM and Ham's F12 media (1:1) (Gibco, Invitrogen, MI, Italy) supplemented with 5% fetal bovine serum, 100 U/ml penicillin, and 100 µg/ml streptomycin (Sigma, St. Louis, Missouri, USA). Cells were cultured in a humidified 5% CO2 atmosphere and at the temperature of 37°C.
NCX currents (/NCX) was recorded from BHK wild-type and BHK stably transfected cells with NCX1, NCX2, and NCX3 and all each mutated of single isoforrms by patch-clamp technique in whole-cell configuration. […] Data were acquired and analyzed by use of pClamp software (version 9.0, Molecular Devices). In brief, /NCX was recorded starting from a holding potential of -60 mV up to a short-step depolarization at +60 mV (60 ms) (He et al., 2003; Xiao et al., 2004). […] The current recorded in the descending portion of the ramp (from +60 to -120 mV) was used to plot the current-voltage (I-V) relation curve. […]
For orientation: The patch-clamp technique gives a direct electrical read-out from membranes.

In a further assay the test system is rat cortical neurons. Kind of assay: Oxygen and glucose deprivation (OGD) followed by reoxygenation. In kind it is cell-based. The note with it: 10 nM; 3 hours OGD followed by 21 hours of reoxygenation. As for the experimental part:
The effect of neurounina-1 was evaluated on cell viability by using rat primary cortical neurons obtained as follow. Briefly, cortical neurons were prepared from brains of 1-2 day-old new-born rats, anaesthetizes with halothane in a glass chamber and decapitated. Dissection and dissociation were performed in a Ca^2+-Mg^2+-free PBS containing glucose. The brain was removed from the skull and the cerebral cortex was removed. Cerebral cortex was first digested enzymatically and after dispersed mechanically by trituration. Cellular suspension was plated on coverslips previously pre-coated with poly-D-lysine 1mg/ml and cultured in "Neurobasal" medium containing B27 (1:50) and Glutamax)1:100).
The oxygen and glucose deprivation (OGD) was used as a model to reproduce in vitro a condition similar to that observed in vivo when a cerebral vessel was occluded as it occurs in stroke. Briefly, cells were incubated in a medium oxygen and glucose-free and containing: NaCl 116 mM, KCI 5.4 mM, MgSO4 0.8 mM, NaHCO3 26.2 mM, NaH2PO4 1 mM, CaCl2 1.8 mM, glycin 0.01 mM e phenol 0.001 mM (w/v) (Molinaro et al., 2008). This medium was previously saturated with 1 atm of a gas containing 95% N2 and 5% CO2 for 20 minutes. […]

T1 sequence (P48768 21-921): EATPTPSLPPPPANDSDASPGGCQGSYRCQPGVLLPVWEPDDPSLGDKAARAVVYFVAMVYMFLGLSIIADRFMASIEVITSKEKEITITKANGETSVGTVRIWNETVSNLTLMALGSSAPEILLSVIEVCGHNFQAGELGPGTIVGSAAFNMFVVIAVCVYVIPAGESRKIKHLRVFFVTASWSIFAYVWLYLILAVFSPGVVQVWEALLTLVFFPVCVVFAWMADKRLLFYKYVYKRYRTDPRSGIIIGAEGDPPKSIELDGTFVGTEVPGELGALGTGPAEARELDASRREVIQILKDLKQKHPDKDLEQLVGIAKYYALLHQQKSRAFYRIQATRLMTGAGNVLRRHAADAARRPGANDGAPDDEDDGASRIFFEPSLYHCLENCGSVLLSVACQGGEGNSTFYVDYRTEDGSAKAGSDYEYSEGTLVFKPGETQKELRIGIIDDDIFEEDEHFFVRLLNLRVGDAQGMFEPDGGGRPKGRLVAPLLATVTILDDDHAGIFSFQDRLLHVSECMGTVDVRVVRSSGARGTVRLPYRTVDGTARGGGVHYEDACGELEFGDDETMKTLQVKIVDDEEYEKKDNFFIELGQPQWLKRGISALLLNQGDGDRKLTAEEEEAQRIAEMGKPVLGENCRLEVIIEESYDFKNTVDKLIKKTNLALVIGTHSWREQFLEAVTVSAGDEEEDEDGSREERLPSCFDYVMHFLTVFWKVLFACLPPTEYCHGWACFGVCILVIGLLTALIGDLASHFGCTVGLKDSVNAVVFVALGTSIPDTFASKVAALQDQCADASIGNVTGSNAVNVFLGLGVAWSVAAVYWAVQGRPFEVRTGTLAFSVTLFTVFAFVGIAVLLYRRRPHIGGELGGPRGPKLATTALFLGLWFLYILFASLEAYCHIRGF

Consider `O=C1CN=C(c2ccccc2)c2cc([N+](=O)[O-])ccc2N1CN1CCCC1` [neurounina-1, 7-nitro-5-phenyl-1-(pyrrolidin-1-ylmethyl)-1H-benzo[e][1,4]diazepin-2(3H)-one], for which the “increased forward and reverse activity of NCX2” value at NCX2 worked out at 30%. In the assay with rat cortical neurons, the “cell death of rat cortical neurons” value is given as “reduced cell death”.
